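Five compound concentrations were applied to cells in 96-well plates for 48 hours; endpoints were derived by simple linear interpolation of the resulting dose-response curve. The concentration for 50% growth inhibition is given as GI50. TGI: concentration producing complete growth inhibition.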
What was measured:
Assay in all cases: NCI anticancer screen, dose series, 48 h
[1] = test system: KM12 colon
[2] = test system: OVCAR-4 ovarian
[3] = test system: OVCAR-5 ovarian
[4] = test system: SK-MEL-2 melanoma
[5] = test system: 786-0 renal
[6] = test system: RPMI-8226 leukemia
[7] = test system: A549 NSCLC
[8] = test system: EKVX NSCLC

Row | SMILES | TGI [1] [µM] | TGI [2] [µM] | TGI [3] [µM] | TGI [4] [µM] | TGI [5] [µM] | TGI [6] [µM] | TGI [7] [µM] | TGI [8] [µM] | GI50 [1] [µM] | GI50 [3] [µM] | GI50 [4] [µM] | GI50 [6] [µM] | GI50 [8] [µM]
1 | N#Cc1c(-c2ccc(Cl)cc2)cc(-c2ccc(Nc3ccnc4cc(Cl)ccc34)cc2)[nH]c1=O | > 100 | > 100 | > 100 | > 100 | > 100 | > 100 | > 100 | > 100 | – | – | – | – | –
2 | O=C(c1ccccc1)c1ccc2nc(-c3c(Cl)c(Cl)c(Cl)c(Cl)c3-c3nnc(-c4ccccc4)o3)[nH]c2c1 | > 100 | > 100 | > 100 | > 100 | > 100 | > 100 | > 100 | > 100 | – | – | – | – | –
3 | CC1C(NNC(N)=O)Oc2cc3c(cc2C1c1ccccc1O)OCO3 (stereo not given) | > 100 | – | > 100 | > 100 | – | 78.6 | > 100 | > 100 | – | – | – | – | –
4 | CSC(=S)Nc1cc(C)cc(C)n1 | > 31.6 | > 31.6 | > 31.6 | > 31.6 | > 31.6 | > 31.6 | > 31.6 | > 31.6 | – | – | – | – | –
5 | CC(=O)O[C@H]1CC[C@@]2(C)C(=CC[C@@H]3[C@@H]2CC[C@]2(C)C(=N/O)/C(=C\c4ccccc4)C[C@@H]32)C1 | 10.6 | > 100 | 70.2 | 39.2 | > 55.4 | > 100 | 97.5 | 51.2 | – | – | – | – | –
6 | O=C(O)CSc1ccccc1C(=O)O | > 100 | > 100 | > 100 | > 100 | > 100 | > 100 | > 100 | > 100 | – | – | – | – | –
7 | COC(=O)[C@@H]1CS(=O)(=O)C(C(C)C)N1C(C)=O (stereo not given in full) | > 100 | > 100 | > 100 | > 100 | > 100 | > 100 | > 100 | > 100 | – | – | – | – | –
8 | O=C(/C(=C(/O)c1ccccc1)c1nc2ccccc2sc1=O)c1ccccc1 | > 100 | > 100 | > 100 | 76 | > 100 | 41.8 | > 100 | > 100 | – | – | – | – | –
9 | O=c1c2cc(C(F)(F)F)ccc2sc2c(NCCCNCCO)nc3ccccc3c12 | 3.17 | – | 3.04 | 3.75 | – | – | – | – | 1.62 | 1.63 | 1.92 | – | –
10 | CN1/C(=C/C=C/C=C/C=C2C(=O)c3ccccc3C2=O)C(C)(C)c2ccccc21 | > 100 | > 100 | > 100 | 66.3 | > 100 | > 100 | > 100 | > 100 | – | – | – | – | –
11 | COC(=O)C1CC2(C)C=CC1N(C(=O)OCc1ccccc1)C2 (stereo not given) | > 100 | > 100 | > 100 | > 100 | > 100 | > 100 | > 100 | > 100 | – | – | – | – | –
12 | C#CC(O)(c1nc2ccccc2s1)c1nc2ccccc2s1 | > 100 | > 100 | 51.6 | 35.7 | 38.9 | 76.8 | > 100 | 57.5 | – | – | – | – | –
13 | CCOC(=O)/C(C(N)=O)=C(\O)C(=O)/C(Br)=C(\O)c1ccccc1 | 35.3 | 56.5 | 37.5 | 37.4 | 29.7 | 29.4 | 43.5 | 52.8 | – | – | – | – | –
14 | CCOC(=O)C1CC(C(=O)c2ccccc2)N2c3ccccc3-c3ccccc3C12 (stereo not given) | > 100 | > 100 | > 100 | > 100 | > 100 | 40.8 | > 100 | > 100 | – | – | – | – | –
15 | COC(=O)[C@H](Cc1c[nH]c2ccccc12)NP(=O)(OCCC#N)OCC1OC(n2cc(C)c(=O)[nH]c2=O)CC1N=[N+]=[N-] (stereo not given in full) | > 100 | > 100 | > 100 | > 100 | > 100 | > 100 | > 100 | > 100 | – | – | – | – | –
16 | Cc1cc(-n2nnc(C(=O)O)c2-c2ccccc2)c2ccc(Cl)cc2n1 | > 100 | > 100 | > 100 | > 100 | > 100 | – | > 100 | > 100 | – | – | – | – | –
17 | CCc1cccc2c3c([nH]c12)-c1ccccc1NC(=O)C3 | > 100 | – | > 100 | > 100 | > 100 | > 100 | > 100 | > 100 | – | – | – | – | –
18 | Cc1c(CNc2ccc(C(=O)NC(CCCNC(=O)c3ccccc3C(=O)O)C(=O)O)cc2)cnc2nc(N)nc(N)c12 (stereo not given) | – | – | > 100 | – | > 100 | > 100 | > 100 | > 100 | – | – | > 100 | 0.0216 | 0.0834
19 | CCOC(=O)c1ccc(Nc2nc3ccccc3nc2-c2cccs2)cc1 | > 100 | – | > 100 | – | > 100 | > 100 | > 100 | > 100 | – | – | – | – | –
20 | O=C1NC(=O)c2ccccc2/C1=C/c1ccc2c(c1)OCO2 | 41 | > 100 | > 100 | 61.4 | > 100 | 74.3 | > 100 | > 100 | – | – | – | – | –
21 | CCN1C/C(=C\c2ccc(Cl)cc2)c2nc(N)c(C#N)c(-c3ccc(Cl)cc3)c2C1 | > 100 | > 100 | > 100 | > 100 | > 100 | > 100 | > 100 | > 100 | – | – | – | – | –
22 | C(/C=N/NC1=NCCCCN1)=N\NC1=NCCCCN1 | > 100 | > 100 | > 100 | – | > 100 | – | > 100 | > 100 | – | – | – | – | –
23 | COc1cc2cc(C(=O)N3CC(COS(C)(=O)=O)c4ccc(NC(=O)OCc5ccccc5)cc43)[nH]c2c(OC)c1OC (stereo not given) | > 100 | > 100 | > 100 | > 100 | > 100 | – | > 100 | > 100 | – | – | – | – | –
24 | Cc1ccc(S(=O)(=O)NC(=O)NC(Cc2ccc(O)cc2)C(=O)O)cc1 (stereo not given) | > 100 | > 100 | > 100 | > 100 | > 100 | > 100 | > 100 | – | – | – | – | – | –

Reference: PubChem BioAssay (NCI)
